This is an account of results in publication PMC7611678 (ACS catalysis, 2021).

Like-named read-outs stand apart in the source and are kept apart here.

The test system of assay [1] is HspUPO. The conditions noted are these: 2 mM H2O2, McIlvaine buffer pH 4, 25 °C; glycosylated enzyme.
Assay [2] concerns HspUPO. The following applies: 2 mM H2O2, McIlvaine buffer pH 5, 25 °C; glycosylated enzyme.
The test system of assay [3] is HspUPO. The conditions noted are these: 2 mM H2O2, McIlvaine buffer pH 7, 25 °C; glycosylated enzyme.
Assay [4] concerns HspUPO. The conditions noted are these: 2 mM H2O2, McIlvaine buffer pH 7, 25 °C; glycosylated enzyme. The source holds these as a separate data set.
The subject of assay [5] is HspUPO. The following applies: 2 mM H2O2, McIlvaine buffer pH 7, 25 °C; glycosylated enzyme. The source holds these as a separate data set.

Consider `COc1ccc(CO)cc1OC` [2a, 3,4-Dimethoxybenzyl alcohol], for which, in the assay on HspUPO [1], the Km (usually the substrate concentration at which the rate is half of its maximum) is 758 ± 100 µM.

Consider `COc1cccc(OC)c1O` [2,6-Dimethoxyphenol], for which, in the assay with HspUPO [2], the Km was 57.5 ± 5 µM.

Turning to `OCc1ccccc1` [Benzyl alcohol], the Km in the assay on HspUPO [3] was 680 ± 0.14 µM.

For `O=[N+]([O-])c1ccc2c(c1)OCO2` [5-Nitro-1,3-benzodioxole], the Km with HspUPO [4] worked out at 18 ± 3.42 µM.

Turning to `c1ccc2[nH]ccc2c1` [6a, Indole], the Km in the assay with HspUPO [5] was 54 ± 8.16 µM.
